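Cultured in 96-well plates, cells were exposed to test compound for 48 hours across five concentrations. Here, GI50 denotes the concentration required for 50% inhibition of growth. The concentration for full growth arrest is given as TGI.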
Legend:
Experiment in all cases: NCI-60 cell line screen, 48 h
786-0 renal = system: 786-0 renal
MOLT-4 leukemia = system: MOLT-4 leukemia
COLO 205 colon = system: COLO 205 colon
EKVX NSCLC = system: EKVX NSCLC
NCI-H460 lung = system: NCI-H460 lung
SK-MEL-5 melanoma = system: SK-MEL-5 melanoma
SN12C renal = system: SN12C renal
TK-10 renal = system: TK-10 renal
HCT-116 colon = system: HCT-116 colon
SNB-75 CNS = system: SNB-75 CNS
A498 renal = system: A498 renal
SW-620 colon = system: SW-620 colon
UACC-62 melanoma = system: UACC-62 melanoma
RPMI-8226 leukemia = system: RPMI-8226 leukemia
K-562 leukemia = system: K-562 leukemia
IGROV1 ovarian = system: IGROV1 ovarian
ACHN renal = system: ACHN renal
LOX IMVI melanoma = system: LOX IMVI melanoma
RXF 393 renal = system: RXF 393 renal
OVCAR-5 ovarian = system: OVCAR-5 ovarian
HT29 colon = system: HT29 colon
NCI-H522 lung = system: NCI-H522 lung
SF-539 CNS = system: SF-539 CNS
CAKI-1 renal = system: CAKI-1 renal
SNB-19 CNS = system: SNB-19 CNS
HCT-15 colon = system: HCT-15 colon
NCI-H226 lung = system: NCI-H226 lung
UO-31 renal = system: UO-31 renal
MDA-MB-231 breast = system: MDA-MB-231 breast
HS 578T breast = system: HS 578T breast
HCC-2998 colon = system: HCC-2998 colon
U251 CNS = system: U251 CNS
SF-268 CNS = system: SF-268 CNS
KM12 colon = system: KM12 colon
SF-295 CNS = system: SF-295 CNS
DU-145 prostate = system: DU-145 prostate
HOP-92 NSCLC = system: HOP-92 NSCLC
M14 melanoma = system: M14 melanoma
OVCAR-4 ovarian = system: OVCAR-4 ovarian
UACC-257 melanoma = system: UACC-257 melanoma
NCI-H23 lung = system: NCI-H23 lung
A549 NSCLC = system: A549 NSCLC
NCI/ADR-RES ovarian = system: NCI/ADR-RES ovarian
MALME-3M melanoma = system: MALME-3M melanoma
SK-OV-3 ovarian = system: SK-OV-3 ovarian
PC-3 prostate = system: PC-3 prostate
OVCAR-8 ovarian = system: OVCAR-8 ovarian
CCRF-CEM leukemia = system: CCRF-CEM leukemia
BT-549 breast = system: BT-549 breast
SK-MEL-2 melanoma = system: SK-MEL-2 melanoma
OVCAR-3 ovarian = system: OVCAR-3 ovarian
SK-MEL-28 melanoma = system: SK-MEL-28 melanoma
MDA-MB-435 = system: MDA-MB-435
HOP-62 NSCLC = system: HOP-62 NSCLC

Compound: CN(C)CC1C(=O)O[C@H]2[C@H]1CC/C(COC(=O)NCc1ccc(Cn3c(=O)sn(CCCI)c3=O)cc1)=C\CC[C@@]1(C)O[C@@H]21 (stereo partly drawn)
- GI50 (786-0 renal): 1100 nM
- TGI (786-0 renal): 2430 nM
- GI50 (MOLT-4 leukemia): 947 nM
- TGI (MOLT-4 leukemia): 3430 nM
- GI50 (COLO 205 colon): 833 nM
- TGI (COLO 205 colon): 1660 nM
- GI50 (EKVX NSCLC): 3190 nM
- TGI (EKVX NSCLC): 10300 nM
- GI50 (NCI-H460 lung): 7770 nM
- TGI (NCI-H460 lung): 17200 nM
- GI50 (SK-MEL-5 melanoma): 6530 nM
- TGI (SK-MEL-5 melanoma): 13300 nM
- GI50 (SN12C renal): 958 nM
- TGI (SN12C renal): 2120 nM
- GI50 (TK-10 renal): 862 nM
- TGI (TK-10 renal): 1640 nM
- GI50 (HCT-116 colon): 793 nM
- TGI (HCT-116 colon): 1600 nM
- GI50 (SNB-75 CNS): 2730 nM
- TGI (SNB-75 CNS): 9510 nM
- GI50 (A498 renal): 7020 nM
- TGI (A498 renal): 13600 nM
- GI50 (SW-620 colon): 998 nM
- TGI (SW-620 colon): 2090 nM
- GI50 (UACC-62 melanoma): 1280 nM
- TGI (UACC-62 melanoma): 3970 nM
- GI50 (RPMI-8226 leukemia): 1750 nM
- TGI (RPMI-8226 leukemia): 6880 nM
- GI50 (K-562 leukemia): 1020 nM
- TGI (K-562 leukemia): 6010 nM
- GI50 (IGROV1 ovarian): 922 nM
- TGI (IGROV1 ovarian): 1970 nM
- GI50 (ACHN renal): 861 nM
- TGI (ACHN renal): 1580 nM
- GI50 (LOX IMVI melanoma): 913 nM
- TGI (LOX IMVI melanoma): 1690 nM
- GI50 (RXF 393 renal): 889 nM
- TGI (RXF 393 renal): 1710 nM
- GI50 (OVCAR-5 ovarian): 1380 nM
- TGI (OVCAR-5 ovarian): 5040 nM
- GI50 (HT29 colon): 945 nM
- TGI (HT29 colon): 1840 nM
- GI50 (NCI-H522 lung): 742 nM
- TGI (NCI-H522 lung): 1680 nM
- GI50 (SF-539 CNS): 2570 nM
- TGI (SF-539 CNS): 8750 nM
- GI50 (CAKI-1 renal): 886 nM
- TGI (CAKI-1 renal): 1950 nM
- GI50 (SNB-19 CNS): 7260 nM
- TGI (SNB-19 CNS): 14200 nM
- GI50 (HCT-15 colon): 965 nM
- TGI (HCT-15 colon): 2130 nM
- GI50 (NCI-H226 lung): 7320 nM
- TGI (NCI-H226 lung): 17600 nM
- GI50 (UO-31 renal): 775 nM
- TGI (UO-31 renal): 1520 nM
- GI50 (MDA-MB-231 breast): 906 nM
- TGI (MDA-MB-231 breast): 1800 nM
- GI50 (HS 578T breast): 5750 nM
- TGI (HS 578T breast): 17700 nM
- GI50 (HCC-2998 colon): 7560 nM
- TGI (HCC-2998 colon): 15400 nM
- GI50 (U251 CNS): 7530 nM
- TGI (U251 CNS): 14300 nM
- GI50 (SF-268 CNS): 4840 nM
- TGI (SF-268 CNS): 11400 nM
- GI50 (KM12 colon): 7710 nM
- TGI (KM12 colon): 15700 nM
- GI50 (SF-295 CNS): 7430 nM
- TGI (SF-295 CNS): 14500 nM
- GI50 (DU-145 prostate): 1070 nM
- TGI (DU-145 prostate): 2160 nM
- GI50 (HOP-92 NSCLC): 786 nM
- TGI (HOP-92 NSCLC): 2560 nM
- GI50 (M14 melanoma): 893 nM
- TGI (M14 melanoma): 1920 nM
- GI50 (OVCAR-4 ovarian): 843 nM
- TGI (OVCAR-4 ovarian): 1770 nM
- GI50 (UACC-257 melanoma): 4040 nM
- TGI (UACC-257 melanoma): 11700 nM
- GI50 (NCI-H23 lung): 4560 nM
- TGI (NCI-H23 lung): 12900 nM
- GI50 (A549 NSCLC): 7170 nM
- TGI (A549 NSCLC): 14400 nM
- GI50 (NCI/ADR-RES ovarian): 10200 nM
- TGI (NCI/ADR-RES ovarian): 30100 nM
- GI50 (MALME-3M melanoma): 836 nM
- TGI (MALME-3M melanoma): 1690 nM
- GI50 (SK-OV-3 ovarian): 7960 nM
- TGI (SK-OV-3 ovarian): 14800 nM
- GI50 (PC-3 prostate): 251 nM
- TGI (PC-3 prostate): 7320 nM
- GI50 (OVCAR-8 ovarian): 1160 nM
- TGI (OVCAR-8 ovarian): 2720 nM
- GI50 (CCRF-CEM leukemia): 1460 nM
- TGI (CCRF-CEM leukemia): 7880 nM
- GI50 (BT-549 breast): 1840 nM
- TGI (BT-549 breast): 7930 nM
- GI50 (SK-MEL-2 melanoma): 6310 nM
- TGI (SK-MEL-2 melanoma): 13800 nM
- GI50 (OVCAR-3 ovarian): 775 nM
- TGI (OVCAR-3 ovarian): 1450 nM
- GI50 (SK-MEL-28 melanoma): 920 nM
- TGI (SK-MEL-28 melanoma): 1820 nM
- GI50 (MDA-MB-435): 1130 nM
- TGI (MDA-MB-435): 2730 nM
- GI50 (HOP-62 NSCLC): 4230 nM
- TGI (HOP-62 NSCLC): 12700 nM
